Structures are written as SMILES. Structures can show the parent of a compound that is named as a salt.

The first experiment concerns electrically-induced seizures (tonic seizure threshold, CC50). Put plainly: Maximal electroshock seizure (MEST) threshold test. The class given is in vivo. The conditions noted are these: mice, 10 mg/kg p.o., suspension in methyl cellulose, one hour post dosing. (The maximal electroshock test induces tonic seizures with an electrical stimulus.)
As to `COc1ccc(C(=O)Nc2cnc3c(c2)CN(C)CC3)cc1Br.Cl` [Example 1, N-(6-Methyl-5,6,7,8-tetrahydro[1,6]naphthyridin-3-yl)-3-bromo-4-methoxybenzamide, monohydrochloride], the “increase in seizure threshold (CC50) compared to control” value (from here on “increase in seizure threshold (CC50)”) was determined as 177%. On to `CN1CCc2ncc(NC(=O)c3ccccc3)cc2C1` [Example 2, N-(6-Methyl-5,6,7,8-tetrahydro[1,6]naphthyridin-3-yl)-benzamide], for which the “increase in seizure threshold (CC50)” value stood at 97%. Turning to `CCOc1ccc(C(=O)Nc2cnc3c(c2)CN(C)CC3)cc1` [Example 5, N-(6-Methyl-5,6,7,8-tetra hydro[1,6]naphthyridin-3-yl)-4-ethoxybenzamide, monohydrochloride], the “increase in seizure threshold (CC50)” value turned out to be 106%.

The target in another experiment is novel receptor obtainable from rat forebrain tissue. Put plainly: Radioligand binding assay, displacement of [3H]-Compound A from rat forebrain tissue. Particulars: [3H]-Compound A 20 nM, room temperature, 1 hour. The method, then:
The affinity of test compounds to the novel receptor site is assessed as follows. Whole forebrain tissue is obtained from rats. The tissue is first homogenised in buffer (usually 50 mM Tris/HCl, pH 7.4). The homogenised tissue is washed by centrifugation and resuspension in the same buffer, then stored at -70° C. until used. […] The final concentration of [3H]-Compound A in the mixture is usually 20 nM. The mixture is incubated at room temperature for 1 hour. [3H]-Compound A bound to the tissue is then separated from unbound [3H]-Compound A by filtration through Whatman GF/B glass fibre filters. The filters are then washed rapidly with ice-cold buffer. The amount of radioactivity bound to the tissue trapped on the filters is measured by addition of liquid scintillation cocktail to the filters followed by counting in a liquid scintillation counter. In order to determine the amount of "specific" binding of [3H]-Compound A, parallel assays are carried out as above in which [3H]-Compound A and tissue are incubated together in the presence of unlabelled Compound A (usually 3 μM). The amount of binding of [3H]-Compound A remaining in the presence of this unlabelled compound is defined as "non-specific" binding. This amount is subtracted from the total amount of [3H]-Compound A binding (i.e. that present in the absence of unlabelled compound) to obtain the amount of "specific" binding of [3H]-Compound A to the novel site. The affinity of the binding of test compounds to the novel site can be estimated by incubating together [3H]-Compound A and tissue in the presence of a range of concentrations of the compound to be tested. The decrease in the level of specific [3H]Compound A binding as a result of competition by increasing concentrations of the compound under test is plotted graphically, and non-linear regression analysis of the resultant curve is used to provide an estimate of compound affinity in terms of pKi value.
A general note: In a radioligand displacement assay an active substance lowers the binding of a labelled ligand.
On to `COc1ccc(C(=O)Nc2cnc3c(c2)CN(C)CC3)cc1Br.Cl` [Example 1, N-(6-Methyl-5,6,7,8-tetrahydro[1,6]naphthyridin-3-yl)-3-bromo-4-methoxybenzamide, monohydrochloride], for which the “in vitro binding affinity, pKi” value is on record as > 8.0. Regarding `COc1cc(C(C)(C)C)ccc1C(=O)Nc1cnc2c(c1)CN(C)CC2.Cl` [Example 3, N-(6-Methyl-5,6,7,8-tetrahydro[1,6]naphthyridin-3-yl)-2-methoxy-4-t-butylbenzamide, monohydrochloride], the “in vitro binding affinity, pKi” value was > 8.0. As for `CN1CCc2ncc(NC(=O)c3ccc(C(C)(C)C)cc3)cc2C1` [Example 10, N-(6-Methyl-5,6,7,8-tetrahydrol[1,6]naphthyridin-3-yl)-4-t-butylbenzamide, monihydrochloride], the “in vitro binding affinity, pKi” value is recorded as > 8.0.

Turning to `CCOc1ccc(C(=O)Nc2cnc3c(c2)CN(C)CC3)cc1Br` [Example 11, N-(6-Methyl-5,6,7 ,8-tetrahydro[1,6]naphthyridin-3-yl)-3-bromo-4-ethoxybenzamide, monohydrochloride], the “in vitro binding affinity, pKi” value is reported as > 8.0. Turning to `CC(C)Oc1ccc(C(=O)Nc2cnc3c(c2)CN(C)CC3)cc1Br.Cl` [Example 12, N-(6-Methyl-5,6,7,8-tetrahydro[1,6]naphthyridin-3-yl)-3-bromo-4-iso-propyloxybenzamide, monohydrochloride], the “in vitro binding affinity, pKi” value is > 8.0. Take `CCOc1ccc(C(=O)Nc2cnc3c(c2)CN(C)CC3)cc1[N+](=O)[O-].Cl` [Example 20, N-(6-Methyl-5,6,7,8-tetrahydro[1,6]naphthyridin-3-yl)-4-ethoxy-3-nitrobenzamide hydrochloride]: the “in vitro binding affinity, pKi” value was > 8.0. `COc1ccc(C(=O)Nc2cnc3c(c2)CN(C)CC3)cc1I.Cl` [Example 28, N-(6-Methyl-5,6,7,8-tetrahydro[1,6]naphthyridin-3-yl)-3-iodo-4-methoxybenzamide hydrochloride]: the “in vitro binding affinity, pKi” value was > 8.0.

For `CCCOc1ccc(C(=O)Nc2cnc3c(c2)CN(C)CC3)cc1C#N` [Example 30, N-(6-Methyl-5,6,7,8-tetrahydro[1,61naphthyridin-3yl)-3-cyano-4-n-propyloxybenzamide, hydrochloride], the “in vitro binding affinity, pKi” value is > 8.0.

In the case of `CC(C)Oc1ccc(C(=O)Nc2cnc3c(c2)CN(C)CC3)cc1Cl.Cl` [Example 33, N-(6-Methyl-5,6,7,8-tetrahydro[1,6]naphthyridin-3-yl)-3-chloro-4-iso-propyloxybenzamide, hydrochloride], the “in vitro binding affinity, pKi” value is reported as > 8.0. `CC(C)Oc1ccc(C(=O)Nc2cnc3c(c2)CN(C)CC3)cc1C(F)(F)F.Cl` [Example 36, N-(6-Methyl-5,6,7,8-tetrahydro[1,6]naphthyridin-3-yl)-4-iso-propyloxy-3-trifluoromethylbenzamide, hydrochloride]: the “in vitro binding affinity, pKi” value is > 8.0.

Values taken from patent publication US6245778A, “1,6-naphthyridine anti-convulsants” (SmithKline Beecham p.l.c., priority 1997, dated 2001).
